Measured values as given in patent US6676928B2, “Perfluoroalkyl-containing complexes with polar radicals, process for their production and their use” (Schering Aktiengesellschaft, priority 2000, dated 2004).

Experiments:
[1] = 39° C., 0.47 T; cited from earlier work
[2] = 39° C., 0.47 T; cited from earlier work; remark: listed apart in the source
[3] = Organ distribution (including tumor and lymph node concentration) after intravenous administration in prostate-cancer-carrying rats; assay type: in vivo, rats (Cop-inbreeding, Dunning R3327 MAT-Lu prostate cancer); details: rat i.v. 100 μmol Gd/kg
Source text: Organ Distribution (Including Tumor and Lymph Node Concentration) After Intravenous Administration of the Contrast Medium According to the Invention From Example 3 in Prostate-cancer-Carrying Rats.
After intravenous administration of 100 μmol of total gadolinium/kg of body weight of the title compound of Example 3 in rats (Cop-inbreeding Dunning R3327 MAT-Lu prostate cancer i.m.-implanted 12 days earlier), the metal content in various organs, in tumors and in lymph nodes (pooled as mesenteral and peripheral lymph nodes) was determined 10 minutes, 1 and 24 hours after administration (MW=SD, n=3).

[4] = blood (58 ml of blood/kg of body weight), 10 min p.i.
[5] = blood (58 ml of blood/kg of body weight), 1 h p.i.
[6] = blood (58 ml of blood/kg of body weight), 24 h p.i.
[7] = intestine (emptied), 10 min p.i.
[8] = mes. LK (pooled mesenteral lymph nodes), 10 min p.i.
[9] = mes. LK (pooled mesenteral lymph nodes), 1 h p.i.
[10] = mes. LK (pooled mesenteral lymph nodes), 24 h p.i.
[11] = muscle (only tissue sample from right lower leg muscle), 10 min p.i.
[12] = muscle (only tissue sample from right lower leg muscle), 1 h p.i.
[13] = muscle (only tissue sample from right lower leg muscle), 24 h p.i.
[14] = periph. LK (pooled peripheral lymph nodes), 10 min p.i.
[15] = periph. LK (pooled peripheral lymph nodes), 1 h p.i.
[16] = periph. LK (pooled peripheral lymph nodes), 24 h p.i.
[17] = remainder of the body, 24 h p.i.

## CNC[C@H](O)[C@@H](O)[C@H](O)[C@H](O)CO.O=C([O-])CN1CCN(CC(=O)[O-])CCN(CC(=O)O)CCN(CC(=O)[O-])CC1.[Gd+3] [DOTAREM ®]
[1]
  T^1 - Relaxivity in Plasma: 4.3 mmol⁻¹ s⁻¹
[2]
  T^1 - Relaxivity in Water: 3.5 mmol⁻¹ s⁻¹

## CC(C(=O)NCC(=O)NCCCC[C@H](NC(=O)CNC(=O)C(C)N1CCN(CC(=O)[O-])CCN(CC(=O)[O-])CCN(CC(=O)[O-])CC1)C(=O)N1CCN(S(=O)(=O)C(F)(F)C(F)(F)C(F)(F)C(F)(F)C(F)(F)C(F)(F)C(F)(F)C(F)(F)F)CC1)N1CCN(CC(=O)[O-])CCN(CC(=O)[O-])CCN(CC(=O)[O-])CC1.[Gd+3].[Gd+3] (some centres unmarked) [Example 3]
[3]; 10 min p.i., less the remainder of the body
  % Dosis pro Gesamtgewebe, Summe der Organe (sum total of all of the organs): 46,35%
[3]; 1 h p.i., less the remainder of the body
  % Dosis pro Gesamtgewebe, Summe der Organe (sum total of all of the organs): 41,79%
[3]; 24 h p.i.
  % Dosis pro Gesamtgewebe, Bilanz (balance): 96,24%
  % Dosis pro Gesamtgewebe, Summe der Organe (sum total of all of the organs): 50,95%
[3]; [4]
  % Dosis pro Gesamtgewebe (% dose per total tissue): 35,18%
  Gd-Konzentration (Gd-concentration): 621 µmol/L
[3]; [5]
  % Dosis pro Gesamtgewebe (% dose per total tissue): 30,63%
  Gd-Konzentration (Gd-concentration): 534 µmol/L
[3]; [6]
  % Dosis pro Gesamtgewebe (% dose per total tissue): 9,58%
  Gd-Konzentration (Gd-concentration): 169 µmol/L
[3]; brain, 10 min p.i.
  % Dosis pro Gesamtgewebe (% dose per total tissue): 0,09%
  Gd-Konzentration (Gd-concentration): 16 µmol/L
[3]; brain, 1 h p.i.
  % Dosis pro Gesamtgewebe (% dose per total tissue): 0,10%
  Gd-Konzentration (Gd-concentration): 16 µmol/L
[3]; brain, 24 h p.i.
  % Dosis pro Gesamtgewebe (% dose per total tissue): 0,03%
  Gd-Konzentration (Gd-concentration): 5 µmol/L
[3]; feces 0-24 h
  % Dosis pro Gesamtgewebe (% dose per total tissue): 8,91%
  Gd-Konzentration (Gd-concentration): 561 µmol/L
[3]; femur, 10 min p.i.
  % Dosis pro Gesamtgewebe (% dose per total tissue): 0,50%
  Gd-Konzentration (Gd-concentration): 61 µmol/L
[3]; femur, 1 h p.i.
  % Dosis pro Gesamtgewebe (% dose per total tissue): 0,50%
  Gd-Konzentration (Gd-concentration): 64 µmol/L
[3]; femur, 24 h p.i.
  % Dosis pro Gesamtgewebe (% dose per total tissue): 0,26%
  Gd-Konzentration (Gd-concentration): 33 µmol/L
[3]; heart, 10 min p.i.
  % Dosis pro Gesamtgewebe (% dose per total tissue): 0,40%
  Gd-Konzentration (Gd-concentration): 177 µmol/L
[3]; heart, 1 h p.i.
  % Dosis pro Gesamtgewebe (% dose per total tissue): 0,33%
  Gd-Konzentration (Gd-concentration): 151 µmol/L
[3]; heart, 24 h p.i.
  % Dosis pro Gesamtgewebe (% dose per total tissue): 0,15%
  Gd-Konzentration (Gd-concentration): 65 µmol/L
[3]; [7]
  % Dosis pro Gesamtgewebe (% dose per total tissue): 2,48%
  Gd-Konzentration (Gd-concentration): 146 µmol/L
[3]; intestine (emptied), 1 h p.i.
  % Dosis pro Gesamtgewebe (% dose per total tissue): 1,85%
  Gd-Konzentration (Gd-concentration): 130 µmol/L
[3]; intestine (emptied), 24 h p.i.
  % Dosis pro Gesamtgewebe (% dose per total tissue): 1,63%
  Gd-Konzentration (Gd-concentration): 101 µmol/L
[3]; kidney, 10 min p.i.
  % Dosis pro Gesamtgewebe (% dose per total tissue): 1,70%
  Gd-Konzentration (Gd-concentration): 359 µmol/L
[3]; kidney, 1 h p.i.
  % Dosis pro Gesamtgewebe (% dose per total tissue): 2,00%
  Gd-Konzentration (Gd-concentration): 394 µmol/L
[3]; kidney, 24 h p.i.
  % Dosis pro Gesamtgewebe (% dose per total tissue): 1,38%
  Gd-Konzentration (Gd-concentration): 292 µmol/L
[3]; liver, 10 min p.i.
  % Dosis pro Gesamtgewebe (% dose per total tissue): 3,79%
  Gd-Konzentration (Gd-concentration): 137 µmol/L
[3]; liver, 1 h p.i.
  % Dosis pro Gesamtgewebe (% dose per total tissue): 3,93%
  Gd-Konzentration (Gd-concentration): 136 µmol/L
[3]; liver, 24 h p.i.
  % Dosis pro Gesamtgewebe (% dose per total tissue): 5,37%
  Gd-Konzentration (Gd-concentration): 172 µmol/L
[3]; lung, 10 min p.i.
  % Dosis pro Gesamtgewebe (% dose per total tissue): 1,30%
  Gd-Konzentration (Gd-concentration): 344 µmol/L
[3]; lung, 1 h p.i.
  % Dosis pro Gesamtgewebe (% dose per total tissue): 1,27%
  Gd-Konzentration (Gd-concentration): 321 µmol/L
[3]; lung, 24 h p.i.
  % Dosis pro Gesamtgewebe (% dose per total tissue): 0,56%
  Gd-Konzentration (Gd-concentration): 146 µmol/L
[3]; [8]
  % Dosis pro Gesamtgewebe (% dose per total tissue): 0,11%
  Gd-Konzentration (Gd-concentration): 155 µmol/L
[3]; [9]
  % Dosis pro Gesamtgewebe (% dose per total tissue): 1,10%
  Gd-Konzentration (Gd-concentration): 160 µmol/L
[3]; [10]
  % Dosis pro Gesamtgewebe (% dose per total tissue): 0,09%
  Gd-Konzentration (Gd-concentration): 127 µmol/L
[3]; [11]
  % Dosis pro Gesamtgewebe (% dose per total tissue): 0,12%
  Gd-Konzentration (Gd-concentration): 41 µmol/L
[3]; [12]
  % Dosis pro Gesamtgewebe (% dose per total tissue): 0,08%
  Gd-Konzentration (Gd-concentration): 40 µmol/L
[3]; [13]
  % Dosis pro Gesamtgewebe (% dose per total tissue): 0,03%
  Gd-Konzentration (Gd-concentration): 13 µmol/L
[3]; pancreas, 10 min p.i.
  % Dosis pro Gesamtgewebe (% dose per total tissue): 0,25%
  Gd-Konzentration (Gd-concentration): 99 µmol/L
[3]; pancreas, 1 h p.i.
  % Dosis pro Gesamtgewebe (% dose per total tissue): 0,23%
  Gd-Konzentration (Gd-concentration): 95 µmol/L
[3]; pancreas, 24 h p.i.
  % Dosis pro Gesamtgewebe (% dose per total tissue): 0,18%
  Gd-Konzentration (Gd-concentration): 55 µmol/L
[3]; [14]
  % Dosis pro Gesamtgewebe (% dose per total tissue): 0,13%
  Gd-Konzentration (Gd-concentration): 115 µmol/L
[3]; [15]
  % Dosis pro Gesamtgewebe (% dose per total tissue): 0,19%
  Gd-Konzentration (Gd-concentration): 186 µmol/L
[3]; [16]
  % Dosis pro Gesamtgewebe (% dose per total tissue): 0,11%
  Gd-Konzentration (Gd-concentration): 108 µmol/L
[3]; [17]
  % Dosis pro Gesamtgewebe (% dose per total tissue): 31,05%
  Gd-Konzentration (Gd-concentration): 103 µmol/L
[3]; spleen, 10 min p.i.
  % Dosis pro Gesamtgewebe (% dose per total tissue): 0,25%
  Gd-Konzentration (Gd-concentration): 184 µmol/L
[3]; spleen, 1 h p.i.
  % Dosis pro Gesamtgewebe (% dose per total tissue): 0,23%
  Gd-Konzentration (Gd-concentration): 161 µmol/L
[3]; spleen, 24 h p.i.
  % Dosis pro Gesamtgewebe (% dose per total tissue): 0,25%
  Gd-Konzentration (Gd-concentration): 161 µmol/L
[3]; stomach (emptied), 10 min p.i.
  % Dosis pro Gesamtgewebe (% dose per total tissue): 0,47%
  Gd-Konzentration (Gd-concentration): 90 µmol/L
[3]; stomach (emptied), 1 h p.i.
  % Dosis pro Gesamtgewebe (% dose per total tissue): 0,50%
  Gd-Konzentration (Gd-concentration): 93 µmol/L
[3]; stomach (emptied), 24 h p.i.
  % Dosis pro Gesamtgewebe (% dose per total tissue): 0,27%
  Gd-Konzentration (Gd-concentration): 48 µmol/L
[3]; tumor, 10 min p.i.
  % Dosis pro Gesamtgewebe (% dose per total tissue): 0,20%
  Gd-Konzentration (Gd-concentration): 82 µmol/L
[3]; tumor, 1 h p.i.
  % Dosis pro Gesamtgewebe (% dose per total tissue): 0,40%
  Gd-Konzentration (Gd-concentration): 126 µmol/L
[3]; tumor, 24 h p.i.
  % Dosis pro Gesamtgewebe (% dose per total tissue): 0,46%
  Gd-Konzentration (Gd-concentration): 100 µmol/L
[3]; urine 0-24 h
  % Dosis pro Gesamtgewebe (% dose per total tissue): 36,38%
  Gd-Konzentration (Gd-concentration): 60 µmol/L

## CNC[C@H](O)[C@@H](O)[C@H](O)[C@H](O)CO.CNC[C@H](O)[C@@H](O)[C@H](O)[C@H](O)CO.O=C([O-])CN(CCN(CC(=O)[O-])CC(=O)O)CCN(CC(=O)[O-])CC(=O)O.[Gd+3] [MAGNEVIST ®]
[1]
  T^1 - Relaxivity in Plasma: 4.8 mmol⁻¹ s⁻¹
[2]
  T^1 - Relaxivity in Water: 3.8 mmol⁻¹ s⁻¹
